Experimental data as given in paper PMC7011974, “Benzimidazole derivatives endowed with potent antileishmanial activity” (Journal of Enzyme Inhibition and Medicinal Chemistry, 2017).
Read-outs that look alike come from different tables or passages of the source. Values belong to the compound of their own block, whether it stands above or below them.

Tests used:
[1] = system: L. tropica promastigotes; assay: Antileishmanial activity on L. tropica promastigotes (MTT); assay type: cell-based, Leishmania tropica; details: for IC50: Leishmania tropica, 72 h, read-out: IC50 (µM) L. tropica
[2] = system: L. infantum promastigotes; assay: Antileishmanial activity on L. infantum promastigotes (MTT); assay type: cell-based, Leishmania infantum; details: for IC50: Leishmania infantum, 72 h, read-out: IC50 (µM) L. infantum
[3] = Cytotoxicity on Vero-76 cells (crystal violet); details: monkey, Vero-76 cells
[4] = system: monkey kidney (Vero76) cells; assay: Cytotoxicity on Vero-76 cells (crystal violet)
[5] = in vitro; details: monkey
[6] = system: human microvascular endothelial cell line (HMEC-1); assay: Cytotoxicity on HMEC-1 cells (MTT); assay type: cell-based; details: for IC50: Homo sapiens, cytotoxicity, HMEC-1 cells, MTT; for SI L. infantum (IC50 HMEC-1/IC50 L. infantum) / SI L. tropica (IC50 HMEC-1/IC50 L. tropica): selectivity index
[7] = promastigotes, MTT, starred values mean of two experiments
[8] = fold potency versus miltefosine
[9] = percent of amphotericin B potency, calculated for each experiment

Compound: FC(F)(F)c1ccc2c(c1)nc(-c1ccccc1)n2C[C@@H]1CCCN2CCCC[C@H]12 [Compound 35]
- IC50 [1, 7]: 7.31 ± 2.75 µM
- Ratio IC50 miltef./IC50 compd., L. tropica [1, 8]: 5.9
- IC50 amph. B ×100/IC50 compd., L. tropica [1, 9]: 2.42
- IC50 ([2]; promastigotes, MTT): 12.1 ± 1.82 µM
- Ratio IC50 miltef./IC50 compd., L. infantum [2, 8]: 2.6
- IC50 amph. B ×100/IC50 compd., L. infantum [2, 9]: 1.73
- IC50 [3]: 90000 nM
- SI L. infantum (IC50 Vero76/IC50 L. infantum) ([4]; selectivity index, Vero76): 7.44
- SI L. tropica (IC50 Vero76/IC50 L. tropica) ([4]; selectivity index, Vero76): 12.3

Compound: O=[N+]([O-])c1ccc2c(c1)nc(Cc1ccccc1)n2C[C@@H]1CCCN2CCCC[C@H]12 [Compound 32]
- IC50 amph. B ×100/IC50 compd., L. tropica [1]: 1.43
- Ratio IC50 miltef./IC50 compd., L. tropica [1]: 6.0
- IC50 [1]: 7.22 ± 3.13 µM
- IC50 amph. B ×100/IC50 compd., L. infantum [2]: 1.24
- Ratio IC50 miltef./IC50 compd., L. infantum [2]: 3.3
- IC50 [2]: 9.55 ± 3.11 µM
- IC50 [5]: 50000 nM
- SI L. infantum (IC50 Vero76/IC50 L. infantum) [4]: 5.23
- SI L. tropica (IC50 Vero76/IC50 L. tropica) [4]: 6.93

Compound: COc1ccc(-c2nc3cc(C(F)(F)F)ccc3n2CCN(C)C)cc1 [Compound 26]
- IC50 [1, 7]: 29.6 ± 0.3 µM
- Ratio IC50 miltef./IC50 compd., L. tropica [1, 8]: 1.5
- IC50 amph. B ×100/IC50 compd., L. tropica [1, 9]: 0.60
- Antileishmanial activity in words ([1]; promastigotes of L. tropica and/or L. infantum): moderately active
- IC50 ([2]; promastigotes, MTT): > 55 µM
- IC50 [3]: > 100000 nM
- SI L. tropica (IC50 Vero76/IC50 L. tropica) ([4]; selectivity index, Vero76): >3.37

Compound: CCCCCCCCCCCCCCCc1n(C)c2cc(Cl)c(Cl)cc2[n+]1C.[I-] [Compound 11, 5,6-Dichloro-1,3-dimethyl-2-pentadecyl-1 H-benzimidazol-3-ium iodide]
- IC50 [1, 7]: 1.06 ± 0.54 µM
- Ratio IC50 miltef./IC50 compd., L. tropica [1, 8]: 40.8
- IC50 amph. B ×100/IC50 compd., L. tropica [1, 9]: 9.1
- IC50 ([2]; promastigotes, MTT): 0.84 ± 0.13 µM
- Ratio IC50 miltef./IC50 compd., L. infantum [2, 8]: 37.2
- IC50 amph. B ×100/IC50 compd., L. infantum [2, 9]: 14.1
- IC50 [6]: 1.68 ± 0.75 µM
- SI L. infantum (IC50 HMEC-1/IC50 L. infantum) [6]: 2.00
- SI L. tropica (IC50 HMEC-1/IC50 L. tropica) [6]: 1.58
- melting point: 200 to 203 °C

More lines, main results first:

- IC50 [1, 7]: 0.46 µM
- IC50 amph. B ×100/IC50 compd., L. tropica [1, 9]: 17.9
- IC50 ([2]; promastigotes, MTT): 0.27 ± 0.01 µM
- Fold more potent than miltefosine against L. infantum, taking the lowest literature IC50 (15 μM) ([2]; miltefosine IC50 15 μM from literature): 55 fold
- melting point: 140.2 to 145 °C
Compound: CCCCCCCCCCCc1n(C)c2ccccc2[n+]1CCC.[I-] [Compound 4, 1-Methyl-3-propyl-2-undecyl-1 H-benzimidazol-3-ium iodide]
- Ratio IC50 miltef./IC50 compd., L. tropica [1, 8]: 94.0
- IC50 [6]: 2.01 ± 0.24 µM
- Selectivity index (SI) range versus HMEC cells ([6]; range over L. tropica and L. infantum): 2.3–7.4
- SI L. infantum (IC50 HMEC-1/IC50 L. infantum) [6]: 7.44
- SI L. tropica (IC50 HMEC-1/IC50 L. tropica) [6]: 4.37
- IC50 [3]: 2600 nM
- SI L. infantum (IC50 Vero76/IC50 L. infantum) ([4]; selectivity index, Vero76): 9.63
- SI L. tropica (IC50 Vero76/IC50 L. tropica) ([4]; selectivity index, Vero76): 5.65

- IC50 [1, 7]: 0.51 µM
- IC50 amph. B ×100/IC50 compd., L. tropica [1, 9]: 16.1
- IC50 ([2]; promastigotes, MTT): 0.42 ± 0.14 µM
- IC50 amph. B ×100/IC50 compd., L. infantum [2, 9]: 37.1
- melting point: 144.7 to 147.4 °C
Compound: CCCCCCCCCCCCCCCc1n(C)c2ccccc2[n+]1CCC.[I-] [Compound 12, 1-Methyl-2-pentadecyl-3-propyl-1H-benzimidazol-3-ium iodide]
- Ratio IC50 miltef./IC50 compd., L. tropica [1, 8]: 84.8
- Ratio IC50 miltef./IC50 compd., L. infantum [2, 8]: 74.4
- IC50 [6]: 0.73 ± 0.37 µM
- SI L. infantum (IC50 HMEC-1/IC50 L. infantum) [6]: 1.74
- SI L. tropica (IC50 HMEC-1/IC50 L. tropica) [6]: 1.43

- IC50 [1, 7]: 0.49 µM
- IC50 amph. B ×100/IC50 compd., L. tropica [1, 9]: 16.7
- IC50 ([2]; promastigotes, MTT): 0.64 ± 0.01 µM
- IC50 amph. B ×100/IC50 compd., L. infantum [2, 9]: 24.4
- melting point: 215.7 to 219.3 °C
Compound: CCCCCCCCCCCCCCCc1n(C)c2ccccc2[n+]1Cc1ccccc1.[Cl-] [Compound 14, 3-Benzyl-1-methyl-2-pentadecyl-1 H-benzimidazol-3-ium chloride]
- Ratio IC50 miltef./IC50 compd., L. tropica [1, 8]: 88.3
- Ratio IC50 miltef./IC50 compd., L. infantum [2, 8]: 48.8
- IC50 [6]: 0.91 ± 0.19 µM
- SI L. infantum (IC50 HMEC-1/IC50 L. infantum) [6]: 1.42
- SI L. tropica (IC50 HMEC-1/IC50 L. tropica) [6]: 1.86
